Data set [1] concerns Staph. aureus ATCC700787 (MRSA/VISA). Nature of the data set: MIC/FIC/FICI determination, MHB broth microdilution (CLSI M07-A9). The format is cell-based. The note with it: Staphylococcus aureus.
Data set [2] deals with Staph. aureus ATCC29213 (semi-resistant). Nature of the data set: MIC determination, MHB broth microdilution (CLSI M07-A9). It counts as cell-based. The settings on record: Staphylococcus aureus.
For data set [3], the system named is Enterococcus faecium ATCC700221 (VRE). The data set can be described thus: MIC/FIC/FICI determination, MHB broth microdilution (CLSI M07-A9). The format is cell-based. The note with it: single compound.
For data set [4], the system named is VRSA (vancomycin-resistant Staphylococcus aureus). The settings on record: cited from earlier work.
For data set [5] the following is noted: rat, in vivo; cited from earlier work.
The conditions of data set [6]: rat, in vivo, topical or ocular; cited from earlier work.

Values after ≈ are worked out from the molar mass of the structure shown. Read-outs that look alike come from different tables or passages of the source.

Turning to `CCCCCCCCCC(=O)N[C@@H](Cc1c[nH]c2ccccc12)C(=O)N[C@H](CC(N)=O)C(=O)N[C@@H](CC(=O)O)C(=O)N[C@@H]1C(=O)NCC(=O)N[C@@H](CCCN)C(=O)N[C@@H](CC(=O)O)C(=O)N[C@H](C)C(=O)N[C@@H](CC(=O)O)C(=O)NCC(=O)N[C@H](CO)C(=O)N[C@@H]([C@H](C)CC(=O)O)C(=O)N[C@@H](CC(=O)c2ccccc2N)C(=O)O[C@@H]1C` [daptomycin], the MIC amounted to 4 µg/mL in data set [1] (single compound, 24 hours exposure, read-out: MIC); 8 µg/mL in data set [1] (single compound, 48 hours exposure, read-out: MIC); 2 µg/mL (≈ 1.23 µM) in data set [2] (ATCC29213, single compound, 24 hours exposure, read-out: MIC); 2 µg/mL (≈ 1.23 µM) in data set [2] (ATCC29213, single compound, 48 hours exposure, read-out: MIC); 8 µg/mL in data set [3] (24 hours exposure); 8 µg/mL in data set [3] (48 hours exposure).

As to `CN[C@H](CC(C)C)C(=O)N[C@H]1C(=O)N[C@@H](CC(N)=O)C(=O)N[C@H]2C(=O)N[C@H]3C(=O)N[C@H](C(=O)N[C@H](C(=O)O)c4cc(O)cc(O)c4-c4cc3ccc4O)[C@H](O)c3ccc(c(Cl)c3)Oc3cc2cc(c3O[C@@H]2O[C@H](CO)[C@@H](O)[C@H](O)[C@H]2O[C@H]2C[C@](C)(N)[C@H](O)[C@H](C)O2)Oc2ccc(cc2Cl)[C@H]1O` [vancomycin], the MIC was determined as 8 µg/mL in data set [1] (24 h); 8 µg/mL in data set [1] (48 h); 2 µg/mL (≈ 1.38 µM) in data set [2] (ATCC29213, 24 h); 2 µg/mL (≈ 1.38 µM) in data set [2] (ATCC29213, 48 h). Besides, the MIC for vancomycin in data set [4] was at least 16 µg/mL.

Turning to rhamnolipids, the “acute oral toxicity LD50” value in data set [5] is given as above 5000 mg/kg. Also, the “acute dermal toxicity LD50” value in data set [6] was above 5000 mg/kg.
